Experimental data published in patent publication US20090175981A1, “COMPOSITIONS, METHODS AND USES FOR A NOVEL FAMILY OF PEPTIDES” (priority 2004, published 2009).
Several values for one entry are separate records, joined by “and”; a condition that tells them apart may be missing. Equal values may be shown once. Marks after values point to notes of the source that are not given here.

How the values were obtained:
Staphylococcal aureus = test: MIC determination assay / antibiotic activity of synthetic BT variants; format: cell-based; conditions: FIG. 6B
Method: (§1) MIC determination assays. Staphylococcal aureus was grown to mid-log phase in LB at 37° C., and diluted by 500-fold with fresh LB and dispensed into 96-well micro-titer plates. Different concentrations of peptides were added, and the micro-titer plates were incubated at 37° C. with shaking. A minimal inhibition concentration (MIC) was determined as the lowest peptide concentration that produced a clear well. All experiments were performed in triplicates, and highly consistent MICs were obtained.

Gram-positive bacteria = test: In vitro antibacterial MIC, Gram-positive bacteria; format: cell-based; conditions: most Gram (+)
Method: as §1
(§2) For Gram (−) the following were the antimicrobial activities observed: E. coli: MIC>20 microgram/ml; Pseudomonas and Salmonella: MIC>100 microgram/ml.

E. coli = test: In vitro antimicrobial MIC, E. coli; format: cell-based
Method: as §1, §2

Pseudomonas = test: In vitro antimicrobial MIC, Pseudomonas; format: cell-based
Method: as §1, §2

Salmonella = test: In vitro antimicrobial MIC, Salmonella; format: cell-based
Method: as §1, §2

S. cerevisiae = test: In vitro antifungal MIC; format: cell-based
Tetrahymena = test: In vitro anti-protozoal MIC; format: cell-based
[1] = format: physicochemical; conditions: pH 1.0 plus 100° C. overnight
Broiler Chicken [2] = test: Growth promoting battery Studies 1-1 and 1-2; format: in vivo
straight run broilers [3] = test: Growth and feed conversion of 20-day old broilers in batteries, mash feed (Studies 2-1 and 2-2); format: in vivo, chicken
Method: Briefly, the peptide was used in a semi-purified form to study the growth and feed conversion of […] old straight run broilers in batteries (Studies 2-1 and 2-2). Two amounts were tested against a feed control, peptide at 6 ppm and peptide at 12 ppm, 12 repetitions were carried out per treatment with 4 birds per pen. The diet used in the study was as follows.

straight run broilers [4] = test: Growth and feed conversion of 3-wk old broilers in batteries, pelleted starter feed (Studies 3-1 and 3-2); format: in vivo, chicken
Excerpt: Eight (8) study repetitions per treatment were used, again with 4 birds per pen.

Broiler Chicken [5] = test: Growth promoting Studies 4-1 and 4-2 with direct coccidial challenge; format: in vivo
broiler chickens = test: 42-day broiler floor pen trial with natural colibacillosis challenge; format: in vivo, chicken
Method: A broiler floor pen trial to compare the performance of a new anti-microbial designated for this project as BT1583 alone and in combination with the widely used coccidiostat monensin (MON) to MON fed alone, MON in combination with the also widely used antimicrobial Bacitracin MD (BMD) and BMD alone.
The following levels of each treatment were evaluated:
The study design included 10 pens per treatment and 40 birds per pen housed on day of hatch. Two basal corn-soy based diets of decreasing protein (approximately 23 to 20%) and increasing metabolizable energy (approximately 1400 to 1455 kcal/lb) were used from Day 0 to 21 (starter feed) and Days 22 to 42 (grower feed), respectively. Treatment premixes were measured and blended into diets at required levels. Between days 0 and 21 mortality was less than 1% with all birds growing optimally and of high health across all groups.
Beginning on study day 22, the study director modulated house temperature and air flow to mimic industry conditions conducive to outbreaks of colibacillosis within naïve broiler flocks. This was done to stimulate a natural challenge for this study. Mortality climbed to a house average of approximately 10% by Day 42. A majority of these deaths occurred in groups not receiving BT1583 or MON. Lesions were consistent with those of colibacillosis (air sac, pneumonia, peri-hepatitis, peri-carditis and extreme morbidity). All mortality was documented (weight at death and post-mortem observations). All birds and feeds were weighed at 42 days. All remaining birds were euthanized on Day 42 by asphyxiation with the carcasses submitted for rendering.
The following variables were tested: Response Variables: Gain Per Bird, Feed Per Gain, Mortality (%), Adjusted Feed Per Gain. F test from One Way ANOVA with one blocking factor=location, at Day 42 using 0.05 level of significance.
All Response Variables: LSD T-test procedure for pair-wise comparisons with Type 1 error of means when ANOVA F ratio is significant, overall significance level of 0.05 used. Lines below means (see Table 30, below) indicate groups with insignificant differences in means.
Adjusted Feed/Gain: The total weight of mortality in each pen was added to the final live weight, that value reduced by subtracting the initial weight and then dividing that value into the Total feed consumed to calculate the Adjusted Feed/Gain.

food-producing animals = test: Growth promotion in food-producing animals (overall statement); format: in vivo, chicken; conditions: used to promote growth
Excerpt: Alternatively, but in no way limiting the present invention, the present invention may be used as an animal-use only antibiotic for bacterial infections.

carboxypeptidase Y = molecular target: T1, carboxypeptidase Y (Saccharomyces cerevisiae, UniProt P00729)
T1 sequence (P00729 112-532): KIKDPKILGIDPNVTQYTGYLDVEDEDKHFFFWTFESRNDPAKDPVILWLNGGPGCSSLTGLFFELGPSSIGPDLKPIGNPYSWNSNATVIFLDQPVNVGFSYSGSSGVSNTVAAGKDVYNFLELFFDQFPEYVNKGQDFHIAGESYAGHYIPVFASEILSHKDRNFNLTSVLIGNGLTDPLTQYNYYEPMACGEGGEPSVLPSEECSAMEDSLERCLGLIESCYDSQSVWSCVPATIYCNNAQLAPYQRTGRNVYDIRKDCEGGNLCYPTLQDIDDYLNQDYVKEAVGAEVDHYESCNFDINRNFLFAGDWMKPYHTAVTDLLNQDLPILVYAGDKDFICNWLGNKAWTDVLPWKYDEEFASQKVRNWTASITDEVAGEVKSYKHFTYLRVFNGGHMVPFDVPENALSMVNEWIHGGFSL

[6] = BT1583 12 ppm, BMD 50 ppm, COB 90 ppm, alone or combined, pelleted feed
[7] = Study 4-1, 24 ppm with direct coccidial challenge
[8] = Study 4-2, 48 ppm with direct coccidial challenge
[9] = MON 99 ppm, BT1583 12 ppm, BMD 55 ppm, alone or combined

With “Me2Bmt-L-dO-I-V-V-dK-V-dL-K-dY-L-V-CH2OH [BT1583]” the antibiotic activity (Staphylococcal aureus) was “full antibiotic activity”, the MIC (Gram-positive bacteria) was 1 microgram/ml and the MIC (E. coli) was greater than 20 microgram/ml. The MIC (Pseudomonas) was greater than 100 microgram/ml, the MIC (Salmonella) was greater than 100 microgram/ml and the MIC (S. cerevisiae) was 50 microgram/ml. For the same substance, the MIC (Tetrahymena) was 25 microgram/ml, the in vitro inactivation [1] was “only known in vitro method to inactivate it is pH 1.0 plus 100 °C overnight” and the “Additional weight gain (%)” value (Broiler Chicken [2]; Study 1-1, 10 ppm) was 17%. For the same substance, the “Feed conversion improvement (point)” value (Broiler Chicken [2]; Study 1-1, 10 ppm) was 7 point, the “Additional weight gain (%)” value (Broiler Chicken [2]; Study 1-2, 30 ppm) was 17% and the “Feed conversion improvement (point)” value (Broiler Chicken [2]; Study 1-2, 30 ppm) was 8 point. For the same substance, the “20-day cumulative feed conversion rate, Mean” value (straight run broilers [3]; 6 ppm in mash feed) was 1.5065 and 1.506, the “20-day cumulative weight gain, Mean” value (straight run broilers [3]; 6 ppm in mash feed) was 591.975 and the “20-day cumulative feed conversion rate, Mean” value (straight run broilers [3]; 12 ppm in mash feed) was 1.4959 and 1.496. The “20-day cumulative weight gain, Mean” value (straight run broilers [3]; 12 ppm in mash feed) was 618.934, the “Additional weight gain (%)” value (straight run broilers [3]; Study 2-1, 6 ppm) was 6.7% and the “Feed conversion improvement (point)” value (straight run broilers [3]; Study 2-1, 6 ppm) was 9 point. The “Additional weight gain (%)” value (straight run broilers [3]; Study 2-2, 12 ppm) was 11%, the “Feed conversion improvement (point)” value (straight run broilers [3]; Study 2-2, 12 ppm) was 10 point and the “20-day cumulative feed conversion rate, Mean” value (straight run broilers [4]; [6]) was 1.3308. For the same substance, the “21-day cumulative feed conversion rate, Estimated Marginal Mean” value (straight run broilers [4]; [6]) was 1.331, the “21-day cumulative weight gain, Mean” value (straight run broilers [4]; [6]) was 831.7396 and 831.740 and the “Additional weight gain (%)” value (straight run broilers [4]; Study 3-1, 12 ppm) was 16%. For the same substance, the “Feed conversion improvement (point)” value (straight run broilers [4]; Study 3-1, 12 ppm) was 9 point, the “Additional weight gain (%)” value (straight run broilers [4]; Study 3-2, 12 ppm with Coban) was 5.4% and the “Feed conversion improvement (point)” value (straight run broilers [4]; Study 3-2, 12 ppm with Coban (vs Coban alone)) was 9 point. The “Additional weight gain (%)” value (Broiler Chicken [5]; [7]) was 7.1%, the “Feed conversion improvement (point)” value (Broiler Chicken [5]; [7]) was 13 point and the “Additional weight gain (%)” value (Broiler Chicken [5]; [8]) was 9.3%. For the same substance, the “Feed conversion improvement (point)” value (Broiler Chicken [5]; [8]) was 17 point, the efficacy against colibacillosis (broiler chickens; 3 to 4 week old naïve broiler chickens, simulated commercial conditions) was “highly effective” and the “feed/gain advantage over monensin and BMD fed alone and in combination” value (broiler chickens; Day 42) was no less than 10 point. The “weight gain advantage over monensin and BMD fed alone and in combination” value (broiler chickens; Day 42) was no less than 20 point, the “Day 42 Feed/Gain” value (broiler chickens; [9]) was 1.722^ab and the “Day 42 Gain/Bird” value (broiler chickens; [9]) was 4.333^ab lb. For the same substance, the “Day 42 Mortality (%)” value (broiler chickens; acute and chronic colibacillosis, MON 99 ppm, BT1583 12 ppm, BMD 55 ppm) was 2.75^a %, the “Day 42 Adjusted Feed/Gain” value (broiler chickens; adjusted for weight of mortality, MON 99 ppm, BT1583 12 ppm, BMD 55 ppm) was 1.704^ab and the “mortality rate compared with non-supplemented controls” value (broiler chickens; alone or in combination) was “lower mortality rates”. For the same substance, the feed conversion gain (food-producing animals) was “about 10 points” and the “cleavage by carboxypeptidase Y” value (carboxypeptidase Y) was “resistant”.
